In US4698356A, “Anti-hypertensive agents” (University of Miami, priority 1979, dated 1987):

Molecular target: T1, human urinary ACE (angiotensin converting enzyme) (Homo sapiens, UniProt P12821)
T1 construct: The enzyme preparation was ACE purified from human urine; from tissue; host or cells: human urine (enzyme purified as described by Ryan, J.W., et al., Tissue and Cell 10, 555 (1978))
Assay: ACE activity assay (inhibition of hydrolysis of [3H]-Benzoyl-GlyHisLeu)
Assay type: biochemical
Settings: read-out: I50
Procedure: These factors include the source of enzyme, its purity, the substrate used and its concentration, and the composition of the assay buffer.
ACE activity assay. […] To initiate the assay, 40 μl of enzyme and 10 μl of water or inhibitor dissolved in water were preincubated for five minutes at 37° C. […] To terminate the reaction, 1 ml of 0.1M HCl was added, following which 1 ml of ethyl acetate was added. The mixture was agitated on a rotary mixer and centrifuged briefly to separate the phases.
An aliquot, 500 μl, of the ethyl acetate layer was transferred to a liquid scintillation vial containing 10 ml of Riafluor, trademark New England Nuclear Corporation, Boston, Mass. For determination of I50 values, enzyme activity in the presence of inhibitor at a series of different concentrations was compared to activity in the absence of inhibitor.

T1 sequence (P12821 30-1232 limits assumed): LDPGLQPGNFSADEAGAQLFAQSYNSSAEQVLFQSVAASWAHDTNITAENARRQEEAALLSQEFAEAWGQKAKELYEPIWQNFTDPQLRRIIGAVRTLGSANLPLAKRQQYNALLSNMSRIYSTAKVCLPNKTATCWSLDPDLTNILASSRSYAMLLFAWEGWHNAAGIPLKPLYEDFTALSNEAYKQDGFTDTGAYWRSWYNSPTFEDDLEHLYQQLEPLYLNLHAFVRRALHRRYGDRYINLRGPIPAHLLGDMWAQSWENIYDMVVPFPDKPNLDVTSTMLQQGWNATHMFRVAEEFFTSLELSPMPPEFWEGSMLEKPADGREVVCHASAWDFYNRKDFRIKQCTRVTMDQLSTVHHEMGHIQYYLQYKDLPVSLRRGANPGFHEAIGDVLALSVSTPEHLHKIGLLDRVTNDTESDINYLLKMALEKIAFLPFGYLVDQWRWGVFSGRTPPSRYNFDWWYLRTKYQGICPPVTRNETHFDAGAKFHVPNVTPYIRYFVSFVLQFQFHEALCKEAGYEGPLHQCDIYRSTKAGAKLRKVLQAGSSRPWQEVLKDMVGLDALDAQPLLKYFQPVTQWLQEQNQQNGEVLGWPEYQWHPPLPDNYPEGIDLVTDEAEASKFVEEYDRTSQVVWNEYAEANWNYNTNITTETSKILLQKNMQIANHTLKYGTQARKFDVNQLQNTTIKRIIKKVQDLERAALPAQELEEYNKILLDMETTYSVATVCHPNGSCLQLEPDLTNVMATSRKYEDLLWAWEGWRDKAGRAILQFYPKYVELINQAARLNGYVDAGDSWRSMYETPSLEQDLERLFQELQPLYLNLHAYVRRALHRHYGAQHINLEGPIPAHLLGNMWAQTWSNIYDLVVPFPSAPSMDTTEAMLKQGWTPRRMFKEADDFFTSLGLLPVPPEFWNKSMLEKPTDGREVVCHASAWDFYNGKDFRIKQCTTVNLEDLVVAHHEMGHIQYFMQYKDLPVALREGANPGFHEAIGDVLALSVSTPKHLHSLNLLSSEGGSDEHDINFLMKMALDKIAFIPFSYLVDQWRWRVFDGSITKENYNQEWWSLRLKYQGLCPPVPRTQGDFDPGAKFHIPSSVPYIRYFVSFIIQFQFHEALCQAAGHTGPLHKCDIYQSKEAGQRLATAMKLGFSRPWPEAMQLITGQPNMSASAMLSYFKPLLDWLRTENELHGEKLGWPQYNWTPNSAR

C[C@H](CSC(=O)[C@@H](N)Cc1ccccc1)C(=O)N1CCC[C@H]1C(=O)O [Example 14, N^α -(3-L-phenylalanylthio-2-D-methylpropanoyl)-L-proline]
IC50: 8.8 nM
